Here are results for two molecules from patent US20090318465A1, “METHOD FOR IDENTIFYING COMPOUNDS THAT ACT AS INSULIN-SENSITIZERS” (priority 2006, published 2009).

Test [1] relates to dexamethasone treated insulin resistant 3T3-L1 adipocytes. Description: Insulin resistance assay (IR assay), 14C-2-deoxyglucose uptake. The format is cell-based, mouse. As to conditions: for % of Rosiglitazone (comparison with Rosiglitazone): test compound 10 μM/mL versus Rosiglitazone 0.1 μM; for Fold vehicle (fold activity over vehicle): test compound 10 μM/mL, glucose uptake with 200 nM insulin, vehicle = 1.0. The source says: A suitable insulin resistance assay includes screening of compounds which act as insulin-sensitizers using chronically dexamethasone treated 3T3-L1 adipocytes as an in vitro model. This is a known model for studying insulin signaling and insulin resistance. Chronically dexamethasone treated 3T3-L1 adipocytes serve as a valid in vitro model of insulin resistance resembling diabetes patients.
In an embodiment, the method according to the present invention includes screening compounds identified as active in the phenotype-based assay against dexamethasone treated insulin resistant adipocytes. For example, the method can include applying actives from the insulin sensitivity assay at a concentration of 1-10 μM to the insulin resistant adipocytes for 1-4 days. The adipocytes were previously prepared for the assay by long term exposure to dexamethasone, for example, at 100 nM for about 24-48 hours.
The method can also include determining whether the compounds enhance glucose uptake in the insulin resistant adipocytes by more than 50% above that enhanced by insulin. The method can then include selecting compounds as active, if they caused 1.5 fold or more increase in glucose uptake compared to insulin treated adipocytes. Glucose uptake can be measured by any of a variety of known methods, such as measuring uptake of ^14C-labeled 2-deoxyglucose, a non metabolisable analogue of D-Glucose.
The assay was designed as in the reference, British Journal of Pharmacology, 130, 351-58, 2000, which is incorporated herein by reference for disclosure of the assay.
The solution of test compound (10 μM/mL) was prepared in DMSO.
Rosiglitazone (0.1 μM in DMSO) was used as standard.
Differentiation into adipocytes was induced by known methods as described below. (J. Biol. Chem., 260, 2646-2652, 1985, which is incorporated herein by reference for disclosure of the induction).
Culture medium containing […] 1-methyl-3-isobutylxanthine (IBMX), 0.25 μM dexamethasone, 5 μg/ml insulin (bovine/human), 10 mM HEPES buffer and fetal bovine serum (FBS) 10% by volume in Dulbecco's modified Eagle's medium (DMEM) was used for differentiation.
3T3 L1 fibroblasts were seeded in 24-well or 6-well plates at a density of 0.5-2×10^4 cells/well and were allowed to reach maximal confluency.
The confluent fibroblasts were exposed to culture medium for 2 days. After this period, fresh culture medium (DMEM) containing only insulin was used, 10% FBS was added and cultured for 4 days with change of medium every 2 days. After 7 days the cultures received DMEM containing 10% FBS with no exposure to insulin. By the end of 8-10 days, more than 95% of the cells have become differentiated into adipocytes.
The mature adipocytes were exposed to dexamethasone, 100 nM added in ethanol, in culture medium and incubated for 2 days. On the third day, solution of test compound was added along with 100 nM dexamethasone containing medium for 4 days with a change in medium after every 2 days. Vehicle control contained 1% v/v of DMSO. Rosiglitazone was used as a standard and was added at a concentration of 0.1 μM in DMSO, along with 100 nM dexamethasone containing medium for 4 days with a change in medium after every 2 days. After a total period of 6 days, the cells were processed for glucose uptake as follows.
The insulin resistant adipocytes were exposed to serum-free DMEM containing 0.1% bovine serum albumin for 3-4 hours at 37° C. in CO2 atmosphere. The test compound was also present during this period. After 3-4 hours, the medium was aspirated and replaced with Kreb's Ringer phosphate (KRP) buffer at pH 7.4 and with human/porcine insulin, 200 nM. The cells were incubated for 30 minutes at 37° C. At the end of 30 minutes, 0.05 or 0.1 μCi of ^14C-2-deoxyglucose was added to each well of either 24-well or 6-well plates respectively and was incubated for exactly 5 minutes. After exactly 5 minutes, the plates were transferred to ice trays and medium was rapidly aspirated. […]

The test system of test [2] is genetically diabetic db/db BL/6J mice. Description: Screening in db/db BL/6J mice, plasma glucose reduction. The format is in vivo. As to conditions: 150 mpk od, 10 days. The method, then: In an embodiment, the method includes selecting 6-8 weeks old male db/db mice based on blood glucose levels determined after withholding feed for four hours. For example, the method can employ animals with plasma glucose levels in a suitable range, such as 300-500 mg/dl. The selected mice can be orally dosed with test (lead) compound, for example, in 0.5% carboxy methyl cellulose (CMC) vehicle at a suitable frequency and for a suitable time, such as twice daily for 10 consecutive days. This embodiment of the method can include obtaining blood on, for example, day 5 and day 10, after withholding feed for four hours, and determining plasma glucose levels. These levels can be determined using enzymatic methods (e.g., Diasys kit, Germany) in an autoanalyser. Lead compounds are considered to be in vivo actives if they produce statistically significant fall in plasma glucose on day 10 compared to mice treated with 0.5% CMC vehicle. Rosiglitazone can be used as a standard at 5 mg per kg (mpk) bid for comparison with test compounds.
The protocol was designed as in references. • 1.
The screening of compounds was based on their ability to reduce the plasma glucose levels in genetically diabetic db/db BL/6J mice.
Male db/db mice (obtained from the Animal House of Nicholas Piramal Research Centre, Goregaon, Mumbai, India) were used for this study (body weight in the range of 30-40 g and age is 6-8 weeks) and were kept eight per cage in individually ventilated cages at controlled temperature (22±1° C.) and humidity (45±5%). Food and water were provided ad libitum during their laboratory stay, except for four hours fasting prior to blood sample collection. 12 hours light and dark cycle was followed during the whole study period.
After 4 hours fasting blood samples were collected from mice. Mice showing plasma glucose levels between 300 to 500 mg/dl were divided in groups (8-10 per group) such that the mean plasma glucose levels and variation within the group, for each group, is nearly same. After grouping, mice in respective groups received treatment with 0.5% CMC vehicle, standard compound or test compounds for 10 days. Rosiglitazone was used as a standard.
After 4 hours fasting, mice were anaesthetized using isoflurane (inhalation anesthetic), and blood samples were collected through the retro orbital plexus. Collected blood samples were centrifuged at 7000 rpm for 10 minutes at 4° C.; Separated plasma was used for estimation of plasma glucose using diagnostic kits (Diasys, Germany). Plasma glucose levels of treated groups were normalized with control group using the following formula, which accounted for the changes in control group.

The test system of a further test is db/db mice. As to the kind of experiment: Evaluation of lipid levels (dyslipidemia) in db/db mice. The format is in vivo. As to conditions: doses higher than 50 mpk oral bid, 15 days. The method, then:
Body weight was measured daily. On day 15, the animals were deprived of food for 4 hours after the last dose administration. Blood was collected at the end of the 4-hour period using heparinised capillaries by a retro-orbital puncture. Plasma samples were analyzed for, triglyceride and cholesterol, using the autoanalyser.
The assay was designed as in the reference, Metabolism, 49 (1), 22-31, 2000, the disclosure of which is incorporated by reference for the teaching of the assay.
Seven groups of male db/db mice (8 animals per group) were used. […] Body weight was measured daily. On day 15, the animals were deprived of food for 4 hours after the last dose administration. Blood was collected at the end of the 4-hour period using heparinised capillaries by a retro-orbital puncture. Plasma samples were analyzed for glucose, triglyceride, cholesterol, using the autoanalyser.

A further test deals with 3T3 L1 fibroblasts. Description: Adipogenesis assay (phenotype-based primary screen). In kind it is cell-based, mouse. Particulars: test compound 20 μg/ml plus 5 μg/ml insulin, 8 days. The method, then: The phenotype-based assay used for screening the test compounds in the first screening step is an adipogenesis assay. Any of a variety of adipogenesis assays can be employed. Suitable adipogenesis assays can employ fibroblasts 3T3-L1, which can be derived from mouse and insulin, for example, of either human, porcine or bovine origin. The test compounds can be dissolved at a suitable concentration (e.g., 20 μg/ml) in a suitable solvent such as DMSO. Fibroblasts can be grown in 96-well plates containing sufficient cells, for example 5×10^4 cells/well, that are cultured in nutrient medium along with 5 μg/ml of insulin. After 3 days of incubation in CO2 incubators at 37° C., the nutrient medium with compounds is removed and fresh medium is exposed to the cells. After 8 days, the ability of compounds to potentiate insulin effect on transformation into fat filled cells, adipocytes, was assessed by observing under an inverted microscope. The lipid droplets are stained with Oil red O and percentage of stained cells is determined (e.g., estimated).
Compounds that caused the formation of adipocytes by more than 5 times the vehicle are termed as actives.
The assay was designed as in the reference J. Bio. […]
At the end of 8 days, the number of fat filled adipocytes formed in each well was assessed by observing under microscope. […]

Regarding `O=S(=O)(Nc1cnc(Oc2cc3ccccc3cn2)c(Cl)c1)c1ccc(Cl)cc1Cl` [Compound 5, 2,4-Dichloro-N-[5-chloro-6-(isoquinolin-3-yloxy)pyridin-3-yl]-benzene sulfonamide], in test [1], the “% of Rosiglitazone (comparison with Rosiglitazone)” value worked out at 78.7 ± 3.5% and the “Fold vehicle (fold activity over vehicle)” value was 2.41 ± 0.06. In test [2], the “Normalization with control (plasma glucose reduction)” value was found to be 43.2 ± 15.7. Moreover, in the test on db/db mice, the “reduction in cholesterol levels” value worked out at 26%.
As to `CCOC(=O)c1ccc(C(=N)NC(=O)OC)cc1C` [Compound 9, 4-(Imino-methoxycarbonylaminomethyl)-2-methyl-benzoic acid ethyl ester], the “activity in insulin resistance assay (cut off 1.5-fold of vehicle)” value in test [1] (insulin resistant adipocytes, glucose uptake) is “inactive”. In addition, in test [1], the “% of Rosiglitazone (comparison with Rosiglitazone)” value was “NIL” and the “Fold vehicle (fold activity over vehicle)” value stood at 1.01 ± 0.27. Moreover, the “activity in adipogenesis assay (active = adipocytes more than 5 times the vehicle)” value with 3T3 L1 fibroblasts is “inactive”.
